In patent US20230101687A1, “SYNTHETIC TISSUE BARRIERS AND USES THEREOF” (Massachusetts Institute of Technology, priority 2019, published 2023):

Assays:
[1] = target: CAT (Homo sapiens, UniProt P04040)
Protocol: To confirm the reliability of the porcine-based TPA-positive tissue map described above for potential human trials, fresh resected tissue specimens from humans were tested for compatibility with TPA technology. Similar to the porcine TPA-map study, human tissue specimens were incubated with the TPA solution containing M1, and subsequently CAT-accelerated chromogenic M1 assembly was characterized.

[2] = target: endogenous catalase (CAT) (Sus scrofa, UniProt O62839); settings: of 35 porcine tissue sites
Chain of endogenous catalase (CAT) (O62839 2-527 limits assumed): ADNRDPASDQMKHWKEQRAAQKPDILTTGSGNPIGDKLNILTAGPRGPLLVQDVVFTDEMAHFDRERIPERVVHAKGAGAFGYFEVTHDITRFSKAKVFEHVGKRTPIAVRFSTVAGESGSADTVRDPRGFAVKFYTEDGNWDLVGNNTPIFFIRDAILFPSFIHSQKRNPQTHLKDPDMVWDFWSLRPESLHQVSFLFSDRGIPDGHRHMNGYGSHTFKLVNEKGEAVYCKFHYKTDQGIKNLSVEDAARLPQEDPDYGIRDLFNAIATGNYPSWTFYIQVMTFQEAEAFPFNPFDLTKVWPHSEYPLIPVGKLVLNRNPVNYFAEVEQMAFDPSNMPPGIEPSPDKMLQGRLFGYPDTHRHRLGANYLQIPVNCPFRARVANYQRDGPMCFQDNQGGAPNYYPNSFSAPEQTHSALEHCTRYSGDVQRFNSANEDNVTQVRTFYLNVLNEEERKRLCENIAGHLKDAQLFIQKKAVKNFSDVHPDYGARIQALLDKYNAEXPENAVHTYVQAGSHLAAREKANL

Chain of CAT (P04040 2-527 limits assumed): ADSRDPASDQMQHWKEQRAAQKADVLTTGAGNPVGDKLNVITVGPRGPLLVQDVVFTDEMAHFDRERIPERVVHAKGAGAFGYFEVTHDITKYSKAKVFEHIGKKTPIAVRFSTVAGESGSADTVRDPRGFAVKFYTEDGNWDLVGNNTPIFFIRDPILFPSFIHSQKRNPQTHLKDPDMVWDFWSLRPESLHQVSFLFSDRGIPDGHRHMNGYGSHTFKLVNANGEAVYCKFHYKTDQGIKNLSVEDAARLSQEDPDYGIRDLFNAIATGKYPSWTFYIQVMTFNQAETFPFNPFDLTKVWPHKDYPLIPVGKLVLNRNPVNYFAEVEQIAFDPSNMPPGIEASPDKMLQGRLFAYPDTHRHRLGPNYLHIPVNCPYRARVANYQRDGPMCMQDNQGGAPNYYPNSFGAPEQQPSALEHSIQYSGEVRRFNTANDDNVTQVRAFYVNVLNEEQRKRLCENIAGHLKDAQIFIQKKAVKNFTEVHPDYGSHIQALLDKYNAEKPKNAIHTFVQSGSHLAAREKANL

time to 95% completion of M1 assembly formation ([1]; all human tissue types tested): 4 to 23 min
tissue sites with no obvious PDA signal increase [2]: 9 tissue sites
tissue sites with significantly increased PDA levels (P<0.05) ([2]; dopamine plus hydrogen peroxide): 26 tissue sites
Structure (SMILES): NCCc1ccc(O)c(O)c1 [Monomer M1, dopamine]
adhesion of assemblies on human tissues ([1]; cartilage, buccal, tongue, blood): stably adhered M1 assemblies were observed
